Test results taken from patent EP0233459A1, “Medicament containing a magnesium-urea complex of acetylsalicylic acid and process for the preparation of this complex” (ARTIKA INTERNATIONAL (HONG-KONG) LIMITED, priority 1986, dated 1987).

How the values were obtained:
[1] = pH of the aqueous solution; assay type: physicochemical; settings: solution aqueuse, dix pour cent (p/v)
Text: La solution aqueuse du complexe ASMU, à concentration de dix pour cent (p/v), présente une valeur de pH très proche de 6, donc proche de la neutralité et tout à fait compatible avec celui du pH sanguin.

[2] = system: oedème provoqué sur patte de rat; assay: Induced rat paw oedema (formol or ovalbumine; tables do not say which); assay type: in vivo; settings: for Δ V1 heure: 1 heure; for Δ V1 heure / Δ V3 heures / VARIATIONS DE VOLUME EXPRIME EN % / INDICE DE PROTECTION: 20 mg/kg en équivalent aspirine; for Δ V3 heures: 3 heures
Method: Deux tests de production d'oedème provoqué sur patte de rat, l'un au formol, et l'autre à l'ovalbumine ont été choisis. Dans les deux cas les mesures ont été opérées en incluant une série d'animaux traitée avec de l'aspirine, en comparaison de celle traitée avec l'ASMU.
La dose d'anti-inflammatoire est de 20 mg/kg dans les trois cas, en équivalent aspirine.

souris [3] = assay: Hot plate test (analgesic activity); assay type: in vivo; settings: moyenne de dix essais
Text: Le test dit "de la plaque chauffante" a donc été pratiqué pour déterminer de la valeur de l'ASMU en comparaison avec l'aspirine. Le principe de la méthode consiste à poser une souris sur une plaque dont on a élevé la température en fonction du temps. On note la température à laquelle la souris saute, la sensation de chaleur devenant douleur. Cette température est relativement fixe pour chaque animal.
En recommançant la même expérience avec la souris après administration d'une dose d'un analgésique, on notera une température plus élevée qui sera fonction de la dose et de l'action antalgique de la substance.
Dans le tableau V ci-après ont été rassemblés les ré-sultats, correspondants à une moyenne de dix essais obtenus pour l'aspirine (AAS), l'"ASPEGIC" (ASL) et l'ASMU.

rat [4] = settings: in vivo
Text: (§1) Des expérimentations ont été réalisées sur l'ASMU. La toxicité aiguë a été étudiée par la détermination classique de la DL₅₀, correspondant à la dose de substance qui, administrée à un groupe d'animaux, provoque la port de la moitié d'entre eux.

souris [5] = settings: in vivo
Text: as §1

rat [6] = settings: in vivo; remark: listed apart in the source
porc = settings: in vivo
muqueuse gastrique = assay type: in vivo, rat
Text: En addition des résultats obtenus lors de l'étude de la toxicité générale de l'ASMU, une expérimentation particulière a été menée sur le rat pour déterminer de façon plus précise l'action irritant sur la muqueuse gastrique que peut développer l'ASMU par rapport à l'aspirine.
Le rat placé dans des conditions de contrainte (cage de petite dimension, n'interdisant pas le mouvement, mais empêchant l'animal de se déplacer et même de se retourner) pendant une durée de douze heures pendant plusieurs jours, développe rapidement une irritation de l'estomac qui évolue jusqu'à l'ulcère.
Sur cet animal sensibilisé, on peut tester, en même temps que la contrainte, l'action de médicaments irritants qui accélèrent le processus de formation de l'ulcère. En fin d'expé-rience, on sacrifie les animaux, et l'examen de la muqueuse gastrique permet de tirer des conclusions sur le pouvoir irritant des substances en comparaison avec les produits de référence.

oreille de lapin = settings: in vivo
Text: Une expérience a été menée sur lapins, afin de déterminer le temps de saignement modifié par l'administration d'ASMU et d'aspirine à doses équivalentes.

[7] = system: ostéochondrites déformantes infectieuses; assay: Therapeutic use in infectious deforming osteochondritis; assay type: in vivo; settings: tous les cas traités
Text: A titre d'exemple d'application thérapeutique inhabituelle, on a pu observer l'action curative de l'ASMU dans le traitement d'ostéochondrites déformantes infectieuses. […] Seule la déformation a persisté lorsqu'elle existait, comme on pouvait s'y attendre.

[8] = état sec
[9] = human, in vivo, po, 5 h
[10] = in vivo
[11] = in vivo; remark: listed apart in the source
Text: L'étude de la biodisponibilité de l'ASMU a été effec­tuée sur diverses espèces animales et sur l'homme, en réalisant des dosages de la forme acétylée et désacétylée dans le temps.

[12] = même dose d'aspirine, une heure après administration; 60 min; cited from earlier work
[13] = aspirine, literature knowledge; cited from earlier work
[14] = une heure après l'administration, literature knowledge; cited from earlier work

CC(=O)Oc1ccccc1C(=O)[O-].CC(=O)Oc1ccccc1C(=O)[O-].NC(N)=O.[Mg+2] [ASMU, acétylsalicylate de magnésium-urée]
pH [1]: ~6 | Δ V1 heure [2]: 0,150±0,04 cm^3 | Δ V3 heures [2]: 0,170±0,03 cm^3 | VARIATIONS DE VOLUME EXPRIME EN % ([2]; A 1 heure): 16,48% | VARIATIONS DE VOLUME EXPRIME EN % ([2]; A 3 heures): 18,61% | activité anti-inflammatoire par rapport à celle de l'aspirine ([2]; en moyenne, tests au formol et à l'ovalbumine): dix fois supérieure | INDICE DE PROTECTION ([2]; à 1 heure): 78,6% | INDICE DE PROTECTION ([2]; à 3 heures): 85,4% | Δt(°C) (souris [3]; 1 heure après administration): 4,75 °C | Δt(°C) (souris [3]; 2 heures après administration): 4,90 °C | Δt(°C) (souris [3]; 3 heures après administration): 4,90 °C | Δt(°C) (souris [3]; ½ heure après administration): 3,70 °C | toxicité aiguë (DL₅₀) diminuée par rapport à l'équivalent aspirine (rat [4]): ~20 pour cent | toxicité aiguë (DL₅₀) diminuée par rapport à l'équivalent aspirine (souris [5]): ~20 pour cent | toxicité chronique: examens cliniques et anatomopathologiques (rat [6]): n'a pas provoqué d'anomalie particulière | toxicité chronique: lésion rénale ou stomacale (rat [6]): aucun signe de lésion rénale ou stomacale | toxicité chronique: examens cliniques et anatomopathologiques (porc): n'a pas provoqué d'anomalie particulière | toxicité chronique: lésion rénale ou stomacale (porc): aucun signe de lésion rénale ou stomacale | irritation de la muqueuse gastrique (muqueuse gastrique; rat, in vivo): irritation comparable, mais légèrement supérieure à celle des témoins | ALLONGEMENT DU TEMPS DE SAIGNEMENT (oreille de lapin): 7% | action curative [7]: l'inflammation a regressé, puis disparu | durée de conservation sans altération notable [8]: deux ans et demi | acétylsalicylémie [9]: 40 mg par litre de plasma | absorption [10]: pratiquement complète | acétylsalicylémie, fois plus élevée que celle d'une dose équivalente d'aspirine [11]: entre dix et quinze | salicylémie moyenne, % de la quantité circulante [11]: ~10 pour cent

CC(=O)Oc1ccccc1C(=O)O [A S L]
Δ V1 heure ([2]; 20 mg/kg): 0,490±0,04 cm^3 | Δ V3 heures ([2]; 20 mg/kg): 0,700±0,15 cm^3 | VARIATIONS DE VOLUME EXPRIME EN % ([2]; A 1 heure, 20 mg/kg): 50,16% | VARIATIONS DE VOLUME EXPRIME EN % ([2]; A 3 heures, 20 mg/kg): 72,29% | INDICE DE PROTECTION ([2]; à 1 heure, 20 mg/kg): 35% | INDICE DE PROTECTION ([2]; à 3 heures, 20 mg/kg): 43% | Δt(°C) (souris [3]; 1 heure après administration): 2,15 °C | Δt(°C) (souris [3]; 2 heures après administration): 1,90 °C | Δt(°C) (souris [3]; 3 heures après administration): 0,45 °C | Δt(°C) (souris [3]; ½ heure après administration): 1,25 °C | ALLONGEMENT DU TEMPS DE SAIGNEMENT (oreille de lapin): 35%

CC(=O)Oc1ccccc1C(=O)O [AAS, aspirine]
Δ V1 heure ([2]; 20 mg/kg): 0,580±0,03 cm^3 | Δ V3 heures ([2]; 20 mg/kg): 0,930±0,05 cm^3 | VARIATIONS DE VOLUME EXPRIME EN % ([2]; A 1 heure, 20 mg/kg): 72% | VARIATIONS DE VOLUME EXPRIME EN % ([2]; A 3 heures, 20 mg/kg): 115,01% | INDICE DE PROTECTION ([2]; à 1 heure, 20 mg/kg): 7% | INDICE DE PROTECTION ([2]; à 3 heures, 20 mg/kg): 10% | Δt(°C) (souris [3]; 1 heure après administration): 1,15 °C | Δt(°C) (souris [3]; 2 heures après administration): 1,40 °C | Δt(°C) (souris [3]; 3 heures après administration): 0,75 °C | Δt(°C) (souris [3]; ½ heure après administration): 0,90 °C | animaux traités avec ulcères (muqueuse gastrique; rat sous contrainte): 80 pour cent | ALLONGEMENT DU TEMPS DE SAIGNEMENT (oreille de lapin): 66% | quantités d'aspirine retrouvées dans le sang [12]: ~3 mg par litre | part de la dose absorbée par l'organisme [13]: deux tiers | part de la dose initiale sous la forme acétylée [14]: ~10 pour 100
